From US20050019742A1, “Methods for assessment of platelet aggregation” (priority 2002, published 2005)
Where a SMILES comes first, the peptide text is derived from it. Bridges are numbered along the chain shown (N, C = ends). [ ]: non-standard residue; d: D form. hArg = N=C(N)NCCCC[C@H](N)C(=O)O; Mpa = O=C(O)CCS

B1: Reopro: antibody based GPIIbIIIa antagonist (antibody, chains of the INN, looked up, V domains shown)
VH: EVQLQQSGTVLARPGASVKMSCEASGYTFTNYWMHWVKQRPGQGLEWIGAIYPGNSDTSYIQKFKGKAKLTAVTSTTSVYMELSSLTNEDSAVYYCTLYDGYYVFAYWGQGTLVTVSA
VL: EIVLTQSPVTLSVTPGDSVSLSCRASRDISNNLHWFQQTSHESPRLLIKYASQSMSGIPSRFSGSGSGTDFTLSINSVETEDFGMYFCQQTNSWPYTFGGGTKLEIK
modifications: Fab
notes: antibody based GPIIbIIIa antagonist

What was measured:
platelet aggregation [1] = test: Light transmission aggregometry (LTA) in PPACK platelet rich plasma, ADP-induced aggregation; type: cell-based, human; settings: samples in which Ultegra measures inhibition of 80% or greater, average lower end of a range reaching greater than 80%, ADP 20 μM
Method: Sufficient blood volume was collected to complete matched comparisons for each donor in all three assays. Using a 19 g butterfly needle, blood was collected by venipuncture into a plastic syringe and transferred to a tube containing PPACK anticoagulant (0.3 mM final concentration) or into PPACK vacuettes provided by Ultegra®. An EDTA baseline tube was also drawn per Plateletworks® recommendation. One 10 mL sample of PPACK blood was centrifuged at 135 g for 15 minutes to obtain platelet rich plasma (“PRP”) for use in traditional light transmission aggregometry. The residual blood from this tube was centrifuged at 1500 g for 15 minutes to obtain platelet poor plasma (“PPP”). PRP was diluted to 250,000/mm^3 with autologous PPP. Diluted PRP (0.5 ml) was added to an aggregation cuvette and placed into the 37° C. aggregation chamber. Eptifibatide (125-4000 nM) or tirofiban (25-200 nM) was added to PRP, incubated for at least two minutes. 50 μl ADP (20 μM final concentration) was added to 0.45 ml PRP and the aggregation response was recorded. A baseline aggregation response (no antagonist present) was determined for each donor. Percent aggregation was calculated at the point of maximum light transmission obtained within five minutes. Percent inhibition of aggregation (IPA) was calculated using the following formula: [formula]

platelet aggregation [2] = test: ICHOR/Plateletworks whole blood platelet aggregation (platelet count), PPACK anticoagulant, ADP agonist; type: cell-based, human; settings: for platelet inhibition measured by ICHOR/Plateletworks: samples in which Ultegra measures inhibition of 80% or greater, average lower end of a range reaching greater than 80%, PPACK whole blood, ADP 20 μM
Method: Whole blood platelet aggregation was performed using a procedure modified from that outlined in the Helena Plateletworks® brochure. PPACK anticoagulant was used instead of citrate due to the well-documented effect of citrate overestimating the level of platelet inhibition by all currently approved GPIIb-IIIa antagonists (Phillips et al., “Effect of Ca^++ on Integrilin™ GPIIb-IIIa Interactions: Enhanced GPIIb-IIIa Binding and Inhibition of Platelet Aggregation by Reductions in the Concentration of Ionized Calcium in Plasma Anticoagulated with Citrate,” Circulation 96:1488-1494 (1997); Nannizzi-Alaimo et al., “Effect of Citrate Anticoagulation and Platelet Agonist Concentration on the Inhibitory Activities of GPIIb-IIIa Antagonists,” Circulation 100:1710 (1999); Kereiakes et al., “Differential Effects of Citrate Versus PPACK Anticoagulation on Measured Platelet Inhibition by Abciximab, Eptifibatide and Tirofiban,” J. Thromb. Thrombolysis 12:123-127 (2001); Jennings et al., “The Pharmacodynamics of Parenteral Glycoprotein IIb/IIIa Inhibitors,” J. Interv. Cardiol. 15(1):45-60 (2002), each of which is hereby incorporated by reference in its entirety). For this assay, 1.0 ml of PPACK anticoagulated whole-blood was mixed with increasing concentrations of eptifibatide or tirofiban and incubated for at least 2 minutes. After addition of ADP (20 μM), the tube was inverted 15-20 times to ensure mixing, and the platelet count was performed immediately (test sample). A baseline tube was also drawn and handled exactly as the antagonist sample tube minus the addition of agonist. A platelet count was also performed on blood collected into EDTA per the manufacturer's instructions. Percent inhibition of platelet aggregation was obtained from the platelet inhibition/aggregation calculation wheel provided with Plateletworks®.
When testing samples containing Reopro, the ICHOR instrument never achieves more than 60% inhibition of aggregation. […]

Molecule | platelet inhibition measured by LTA (platelet aggregation [1]) [%] | platelet inhibition measured by ICHOR/Plateletworks (platelet aggregation [2]) [%] | inhibition of aggregation (maximum achieved on ICHOR instrument) (platelet aggregation [2]; samples containing Reopro, microaggregates are counted as aggregation) [%]
N=C(N)NCCCC[C@@H]1NC(=O)CCSSC[C@@H](C(N)=O)NC(=O)[C@@H]2CCCN2C(=O)[C@H](Cc2c[nH]c3ccccc23)NC(=O)[C@H](CC(=O)O)NC(=O)CNC1=O [eptifibatide] ([Mpa][hArg]GDWPC-NH2; disulfide 1-7) | ≥ 30 | ≥ 30 | 
CCCCS(=O)(=O)N[C@@H](Cc1ccc(OCCCCC2CCNCC2)cc1)C(=O)O [tirofiban] | ≥ 35 | ≥ 35 | 
B1 |  |  | ≤ 60
